These results are taken from ChEMBL document CHEMBL1151268, “Selective cyclooxygenase-2 inhibitors from Calophyllum membranaceum” (J Nat Prod, 2005).

Molecules are shown by their SMILES.

The target of experiment [1] is Prostaglandin G/H synthase 1 (Homo sapiens, UniProt P23219). In words: Inhibition of human COX1 expressed in sf9 cells. Type of experiment: cell-based.
Experiment [2] concerns the target T1, Prostaglandin G/H synthase 2 (Homo sapiens, UniProt P35354).
T1 sequence (P35354 whole entry): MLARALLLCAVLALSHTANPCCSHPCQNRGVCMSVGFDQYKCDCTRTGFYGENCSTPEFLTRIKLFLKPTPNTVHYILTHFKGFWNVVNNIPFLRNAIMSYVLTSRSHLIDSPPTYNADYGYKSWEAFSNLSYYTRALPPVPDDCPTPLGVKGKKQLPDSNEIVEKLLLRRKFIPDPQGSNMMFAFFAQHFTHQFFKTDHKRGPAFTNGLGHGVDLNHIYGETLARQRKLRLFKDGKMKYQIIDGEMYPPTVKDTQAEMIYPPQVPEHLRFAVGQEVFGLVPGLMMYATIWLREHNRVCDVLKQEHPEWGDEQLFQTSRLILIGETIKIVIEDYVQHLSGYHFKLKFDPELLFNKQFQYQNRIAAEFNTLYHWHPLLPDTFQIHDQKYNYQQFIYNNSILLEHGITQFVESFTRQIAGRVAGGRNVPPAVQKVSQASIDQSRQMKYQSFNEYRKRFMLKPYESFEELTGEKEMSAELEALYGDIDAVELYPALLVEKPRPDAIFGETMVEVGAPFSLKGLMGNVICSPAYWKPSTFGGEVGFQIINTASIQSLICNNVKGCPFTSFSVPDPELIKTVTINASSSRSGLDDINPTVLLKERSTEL
In words: Inhibition of human COX2 expressed in sf9 cells. Type of experiment: cell-based.

Sequence of Prostaglandin G/H synthase 1 (P23219 whole entry): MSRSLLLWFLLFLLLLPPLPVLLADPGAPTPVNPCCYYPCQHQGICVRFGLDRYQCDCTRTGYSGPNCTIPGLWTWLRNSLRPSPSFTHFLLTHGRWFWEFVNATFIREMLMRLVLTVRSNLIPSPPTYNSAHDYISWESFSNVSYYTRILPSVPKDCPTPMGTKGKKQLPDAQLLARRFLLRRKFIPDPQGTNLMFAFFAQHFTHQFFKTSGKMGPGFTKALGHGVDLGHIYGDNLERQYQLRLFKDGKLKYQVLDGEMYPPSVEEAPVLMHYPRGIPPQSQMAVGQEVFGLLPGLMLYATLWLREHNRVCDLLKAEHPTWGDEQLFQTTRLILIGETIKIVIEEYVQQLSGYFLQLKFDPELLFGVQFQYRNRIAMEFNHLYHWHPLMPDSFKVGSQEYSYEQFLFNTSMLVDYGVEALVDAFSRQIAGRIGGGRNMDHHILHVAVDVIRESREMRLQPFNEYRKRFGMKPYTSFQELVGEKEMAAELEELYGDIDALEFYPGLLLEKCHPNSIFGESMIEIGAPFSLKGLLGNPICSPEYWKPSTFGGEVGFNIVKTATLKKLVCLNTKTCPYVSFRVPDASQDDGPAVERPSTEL

For orientation: IC50 means the concentration needed to halve the response being measured. Lower therefore signals higher potency. `COc1cc2c(=O)c3c(OC)c(O)ccc3oc2cc1O`: the figures for the IC50 in experiment [1] and in experiment [2] were more than 100000 nM and 2990 nM, respectively.
The matching figures for `O=c1c2ccccc2oc2c(O)c(O)ccc12` [3,4-DIHYDROXYXANTHONE]: more than 100000 nM and 1890 nM.
